Experimental findings from paper PMC4819177, “The rational search for selective anticancer derivatives of the peptide Trichogin GA IV: a multi-technique biophysical approach” (Scientific Reports, 2016) are described below.

For series [1], the system named is T67 human glioma cell line. The series is classed as cell-based. The settings on record: MTT, 24 h exposure; average error about ±2 μM. How it is done: (§1) We studied the effect of TG and its analogues on normal (HDF) and transformed (T67 and HeLa) cells. The cellular viability was assessed after 24 hours of exposure to the peptides by the MTT assay (Table 1).
(§2) Culture media, foetal bovine serum (FBS) and antibiotics were purchased from Carlo Erba Dasit Group. The T67 human glioma cell line was derived by Lauro et al.[49] from a World Health Organization (WHO) Grade III gemistocytic astrocytoma. Human dermal fibroblasts (HDF) were obtained by ATCC. HDF were cultured in Fibroblast Basal Medium (ATCC) supplemented with 10% FBS. T67 and HeLa cells were cultured in Dulbecco’s modified Eagle’s medium (MMedical) supplemented with 10% FBS, 100 UI/ml penicillin, 100 μg/ml streptomycin, and 40 μg/ml gentamycin, and kept in a 5% CO2 atmosphere at 37 °C, with saturating humidity. Cell viability and number were measured by trypan blue exclusion method.
(§3) Cytotoxicity of peptides was estimated using a MTT assay. All the chemicals used for this assay have been purchased by sigma Aldrich and used without further purification. T67, HeLa and HDF cells were seeded in 24-well plates at 1 × 10^5 cells/well. Experiments were performed after 24 h of incubation at 37 °C in 5% CO2. After this time cells were washed and treated for 24 h with different concentrations of peptides; the cells are then incubated for 60 mins with 300 μM of MTT in culture medium. The absorbance of each well was measured at 450 nm with a spectrofluorometer (Wallac Victor multilabel counter; Perkin-Elmer Inc., Boston, MA, USA). Data are reported as the mean ± standard deviation of at least three independent experiments.

Series [2] has as its system human dermal fibroblasts (HDF). The series is classed as cell-based. The settings on record: MTT, 24 h exposure; average error about ±2 μM. The procedure:
as §1, §2, §3

Series [3] concerns HeLa cells. Type of series: cell-based, human. The settings on record: MTT, 24 h exposure; average error about ±2 μM. How it is done:
as §1, §2, §3

Series [4] is described as follows: Dynamic light scattering of POPC SUV with peptides. Type of series: physicochemical. The note with it: POPC SUV 2 mM, P:L 1:100. How it is done: The dimension of the SUV prepared by sonication was verified by dynamic light scattering (DLS). Additionally we checked if the peptides at a P:L ratio 1:100, the ratio used for EPR experiments, alter the dimension of the SUV. The experiments were perfomed on POPC SUV (2 mM) with and without peptides. We chose a toxic peptide, [Arg^2] TG, and a non-toxic peptide, [Leu^4] TG. The average diameter of the SUV in this preparation is about 21±6 nm (when counting the size distribution by numer).

The test system of series [5] is HeLa cells. Briefly: Fluorescence microscopy of FITC-labelled peptides. The settings on record: 0.5 μM, 3 hours; for state of the cells / membrane lysis: bright field; for cellular localization of the fluorescent label: green fluorescence. Type of series: cell-based, human. How it is done: HeLa cells were treated for 3 hours with 0.5 μM of TG and [Lys^6] […] The cells treated with [FITC^11] […] Conversely, treatment with [Lys^6, FITC^11] […] It has been shown that some AMP act not on the plasma membrane, but on the mitochondria.
HeLa cells were washed with PBS (NaCl 137 mM, KCl 2.7 mM, Na2HPO4 10 mM, KH2PO4 1.8 mM, pH 7.4), detached with 0.05% trypsin–EDTA solution and centrifuged for 3 min at 300 × g. The pellet was resuspended in DMEM medium and cells were counted by using trypan blue exclusion method. Then, 5 × 10^3 cells were seeded on custom chambers[58] with glass bottom, in 100 μL of complete DMEM medium and incubated at 37 °C in a humidified atmosphere with 5% CO2. After 24 h, cells were washed with PBS and incubated for 3 hours with […] of [FITC^11] TG and [Lys^6, FITC^11] TG dissolved in DMEM. After this time, cells were carefully washed with PBS, then 50 μL of PBS supplemented with calcium and magnesium (NaCl 137 mM, KCl 2.7 mM, Na2HPO4 10 mM, KH2PO4 1.8 mM, CaCl2 1 mM, MgCl2 0.5 mM, pH 7.4) was added to each chamber. Finally, chambers were mounted on the microscope stage for analysis. Micrographs were acquired on a Zeiss Axiovert 200 inverted microscope equipped with XBO xenon 75 W short arc lamp and a Photometrics Coolsnap FX CCD camera (Roper Scientific) with Metafluor Imaging Software version 6.1r6 (Universal Imaging Inc.) at λexc = 500 nm, λem = 545 nm.
We performed fluorescence microscopy experiments with rhodamine, which selectively stains mitochondria, to exclude that TG analogs penetrate inside the mitochondria and are localized only on the plasmatic membrane. Rhodamine staining is shown in FigureS5.B in red. The merged images of the experiments on [FITC^11]

For series [6], the system named is T67, HeLa and HDF cells. Briefly: MTT cytotoxicity assay, summary over the three cell lines. Type of series: cell-based, human. The settings on record: 24 h. How it is done:
as §1, §3
For orientation: Formazan colour is commonly taken as a measure of viable cells.

“Also recorded” adds a separate entry of the source. Square brackets hold non-standard residues; d marks the D form. Peptide text beside a SMILES is read from it. * marks the point of attachment. TOAC = CC1(C)CC(N)(C(=O)O)CC(C)(C)N1[O]; Leu(ol) = CC(C)C[C@H](N)CO; Octanoyl = CCCCCCCC(=O)*; Api = NC1(C(=O)O)CCNCC1; Aib = CC(C)(N)C(=O)O Bounds are passed on as bounds.

Compound Oct-UGLLGGLUGI-Lol [[Leu^4] TG] displayed a concentration for a half-maximal effect (EC50) in series [1] of more than 20 µM. Also, in series [2], the concentration giving a half-maximal response (EC50) was more than 20 µM. The compound also came in with a 50% effective concentration (EC50) in series [3] of more than 20 µM. In series [4], the “DLS Distribution by Number Peak 1, diameter” value came out at 20 nm; the “DLS Distribution by Number Peak 1, fraction” value was found to be 100%; the “DLS Distribution by Volume Peak 1, diameter” value is recorded as 30 nm; the “DLS Distribution by Volume Peak 1, fraction” value turned out to be 96%. Moreover, in series [4], the “DLS Distribution by Volume Peak 2, diameter” value came to 4993 nm; the “DLS Distribution by Volume Peak 2, fraction” value came to 4%; the “effect of peptide on the dimension of the vesicles” value is on record as “does not alter the dimension of the vesicles in a significant way”.
Turning to `CCCCCCCC(=O)NC1(C(=O)NCC(=O)N[C@@H](CC(C)C)C(=O)NC(C)(C)C(=O)N[C@@H](CCCCN)C(=O)N[C@@H](CCCCN)C(=O)N[C@@H](CC(C)C)C(=O)NC(C)(C)C(=O)NCC(=O)N[C@H](C(=O)N[C@H](CO)CC(C)C)[C@@H](C)CC)CC(C)(C)N([O])C(C)(C)C1` [[TOAC^1, Lys^5,6] TG, Oct-XGLUKKLUGI-Lol], the figures for the EC50 in series [1], in series [2] and in series [3] were 10 µM, 15 µM and 6 µM, respectively.
In the same order, the values of `CCCCCCCC(=O)NC1(C(=O)NCC(=O)N[C@@H](CC(C)C)C(=O)NC(C)(C)C(=O)NCC(=O)NCC(=O)N[C@@H](CC(C)C)C(=O)NC(C)(C)C(=O)N[C@@H](CCCNC(=N)N)C(=O)N[C@H](C(=O)N[C@H](CO)CC(C)C)[C@@H](C)CC)CC(C)(C)N([O])C(C)(C)C1` [[TOAC^1, Arg^9] TG, Oct-XGLUGGLURI-Lol] (Octanoyl-[TOAC]GL[Aib]GGL[Aib]RI[Leu(ol)]) are 8 µM, 8 µM and 5 µM.
For `CCCCCCCC(=O)NC(C)(C)C(=O)NCC(=O)N[C@@H](CC(C)C)C(=O)NC(C)(C)C(=O)NCC(=O)N[C@@H](CCCCN)C(=O)N[C@@H](CC(C)C)C(=O)NC(C)(C)C(=O)NCC(=O)N[C@H](C(=O)N[C@H](CO)CC(C)C)[C@@H](C)CC` [[Lys^6] TG, Oct-UGLUGKLUGI-Lol], the EC50 in series [1] amounted to 4 µM; in series [2], 2 µM; in series [3], 2 µM.
Take `CCCCCCCC(=O)NC(C)(C)C(=O)N[C@@H](CCCNC(=N)N)C(=O)N[C@@H](CC(C)C)C(=O)NC(C)(C)C(=O)NCC(=O)NCC(=O)N[C@@H](CC(C)C)C(=O)NC(C)(C)C(=O)NCC(=O)N[C@H](C(=O)N[C@H](CO)CC(C)C)[C@@H](C)CC` [[Arg^2] TG, Oct-URLUGGLUGI-Lol] (Octanoyl-[Aib]RL[Aib]GGL[Aib]GI[Leu(ol)]): in series [1], the EC50 is 8 µM. Also, the EC50 in series [2] is 8 µM. In series [3], this compound registered an EC50 of 4 µM. Also, in series [4], the “DLS Distribution by Number Peak 1, diameter” value was found to be 24 nm; the “DLS Distribution by Number Peak 1, fraction” value came out at 100%; the “DLS Distribution by Volume Peak 1, diameter” value was 28 nm; the “DLS Distribution by Volume Peak 1, fraction” value stood at 92%. Also, in series [4], the “DLS Distribution by Volume Peak 2, diameter” value was determined as 5430 nm; the “DLS Distribution by Volume Peak 2, fraction” value turned out to be 3%; the “DLS Distribution by Volume Peak 3, diameter” value is on record as 135 nm; the “DLS Distribution by Volume Peak 3, fraction” value was found to be 5%. In addition, the “effect of peptide on the dimension of the vesicles” value in series [4] is “does not alter the dimension of the vesicles in a significant way”.
Consider `CCCCCCCC(=O)NC(C)(C)C(=O)NCC(=O)N[C@@H](CC(C)C)C(=O)NC(C)(C)C(=O)NCC(=O)NCC(=O)N[C@@H](CC(C)C)C(=O)NC(C)(C)C(=O)NCC(=O)N[C@H](C(=O)N[C@H](CO)CC(C)C)[C@@H](C)CC` [TG, 1-Oct-Aib-Gly-Leu-Aib-Gly-Gly-Leu-Aib-Gly-Ile-Lol, reference compound] (Octanoyl-[Aib]GL[Aib]GGL[Aib]GI[Leu(ol)]), for which the concentration for a half-maximal effect (EC50) in series [1] was 2 µM; in series [2], 4 µM; in series [3], 8 µM.
On the same counts, the results for Oct-XGLUGGLLGI-Lol [[TOAC^1, Leu^8] TG] are more than 20 µM, more than 20 µM and more than 20 µM.
On to Oct-UGLUGGLUGIL-FITC [[FITC^11] TG], for which, in series [5], the “state of the cells / membrane lysis” value was “keeps the cells intact; also recorded: largely intact” and the “cellular localization of the fluorescent label” value is “mainly located in the outer plasma membrane”. The “colocalization with rhodamine (mitochondria)” value in series [5] (rhodamine staining) is “no significant colocalization”.
As for “Oct-UGLUGKLUGIL- FITC [[Lys^6, FITC^11] TG]”, in series [5], the “state of the cells / membrane lysis” value is recorded as “severe membrane lysis” and the “cellular localization of the fluorescent label” value was “mainly located in the outer plasma membrane”.
For the compound `CCCCCCCC(=O)NC1(C(=O)NCC(=O)N[C@@H](CC(C)C)C(=O)N[C@@H](CC(C)C)C(=O)NCC(=O)NCC(=O)N[C@@H](CC(C)C)C(=O)NC(C)(C)C(=O)NCC(=O)N[C@H](C(=O)N[C@H](CO)CC(C)C)[C@@H](C)CC)CC(C)(C)N([O])C(C)(C)C1` [[TOAC^1, Leu^4] TG, Oct-XGLLGGLUGI-Lol] (Octanoyl-[TOAC]GLLGGL[Aib]GI[Leu(ol)]), the “cytotoxicity / selectivity in words” value in series [6] is listed as “no toxicity”.
Take `CCCCCCCC(=O)NC(C)(C)C(=O)NCC(=O)N[C@@H](CC(C)C)C(=O)NC(C)(C)C(=O)NCC(=O)NCC(=O)N[C@@H](CC(C)C)C(=O)NC1(C(=O)NCC(=O)N[C@H](C(=O)N[C@H](CO)CC(C)C)[C@@H](C)CC)CCNCC1` [[Api^8] TG, Oct-UGLUGGLZGI-Lol] (Octanoyl-[Aib]GL[Aib]GGL[Api]GI[Leu(ol)]): the concentration for a half-maximal effect (EC50) in series [2] and in series [3] was more than 20 µM throughout. In series [6], the “cytotoxicity / selectivity in words” value is “selective cytotoxicity towards a cancer cell line”.
With `CCCCCCCC(=O)NC1(C(=O)NCC(=O)N[C@@H](CC(C)C)C(=O)NC(C)(C)C(=O)NCC(=O)N[C@@H](CCCCN)C(=O)N[C@@H](CC(C)C)C(=O)NC(C)(C)C(=O)NCC(=O)N[C@H](C(=O)N[C@H](CO)CC(C)C)[C@@H](C)CC)CC(C)(C)N([O])C(C)(C)C1` [[TOAC^1, Lys^6] TG, Oct-XGLUGKLUGI-Lol], the EC50 in series [1] was 1 µM; in series [2], 5 µM; in series [3], 3 µM. In series [6], the “cytotoxicity / selectivity in words” value is listed as “most toxic peptide on all the cell lines”.
For `CCCCCCCC(=O)NC1(C(=O)N[C@@H](CCCNC(=N)N)C(=O)N[C@@H](CC(C)C)C(=O)NC(C)(C)C(=O)NCC(=O)NCC(=O)N[C@@H](CC(C)C)C(=O)NC(C)(C)C(=O)NCC(=O)N[C@H](C(=O)N[C@H](CO)CC(C)C)[C@@H](C)CC)CC(C)(C)N([O])C(C)(C)C1` [[TOAC^1, Arg^2] TG, Oct-XRLUGGLUGI-Lol] (Octanoyl-[TOAC]RL[Aib]GGL[Aib]GI[Leu(ol)]), the half-maximal effective concentration (EC50) in series [1] was determined as 8 µM; in series [2], 15 µM; in series [3] it was 9 µM.

In general, EC50 refers to the concentration needed to bring the measured effect to its halfway point. A higher EC50 goes with lower potency in that assay.
